# Measurements reported in patent publication US20240270741A1 (Cogent Biosciences, Inc., priority 2023, published 2024).
# Target: FGFR2 (Homo sapiens, UniProt P21802)
# Assay: FGFR wild type enzyme assay (HTRF KinEASE-TK), FGFR2
# Settings: Enz FGFR2 (nM), FGFR2 wild type enzyme assay
# FGFR2, sequence (P21802 399-821 limits assumed): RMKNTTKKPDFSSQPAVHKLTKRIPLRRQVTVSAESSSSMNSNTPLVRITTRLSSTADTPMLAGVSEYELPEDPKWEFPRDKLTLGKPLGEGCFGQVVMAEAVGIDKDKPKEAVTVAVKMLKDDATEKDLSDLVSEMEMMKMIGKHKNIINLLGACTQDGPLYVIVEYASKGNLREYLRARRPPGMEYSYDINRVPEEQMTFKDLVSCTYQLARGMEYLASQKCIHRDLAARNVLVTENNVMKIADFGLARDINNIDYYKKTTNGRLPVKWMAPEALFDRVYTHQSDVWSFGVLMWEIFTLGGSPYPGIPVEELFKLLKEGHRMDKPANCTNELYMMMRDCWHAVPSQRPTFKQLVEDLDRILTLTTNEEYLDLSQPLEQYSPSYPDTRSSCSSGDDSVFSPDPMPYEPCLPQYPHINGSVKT
row,Structure (SMILES),IC50
1,"Cn1ncc(-c2cc(Sc3ccccc3C#N)c3c(C#N)cnn3c2)c1N [Example 608, 6-(5-amino-1-methyl-1H-pyrazol-4-yl)-4-((2-cyanophenyl)thio)pyrazolo [1,5-a]pyridine-3-carbonitrile]",2 nM
2,"N#Cc1ccccc1Sc1cc(-c2cnn(-c3cn[nH]c3)c2)cn2ncc(C#N)c12 [Example 609, 6-(1′H-[1,4′-bipyrazol]-4-yl)-4-((2-cyanophenyl)thio)pyrazolo [1,5-a]pyridine-3-carbonitrile]",4 nM
3,"CN1CCN(c2ccc(-c3cc(Sc4ccc(F)cc4C#N)c4c(C#N)cnn4c3)cn2)CC1=O [Example 610, 4-((2-cyano-4-fluorophenyl)thio)-6-(6-(4-methyl-3-oxopiperazin-1-yl)pyridin-3-yl)pyrazolo[1,5-a]pyridine-3-carbonitrile]",2 nM
4,"N#Cc1cc(F)ccc1Sc1cc(-c2ccc(N3C[C@H](O)[C@@H](O)C3)nc2)cn2ncc(C#N)c12 [Example 611, 4-((2-cyano-4-fluorophenyl)thio)-6-(6-((3S,4S)-3,4-dihydroxypyrrolidin-1-yl)pyridin-3-yl)pyrazolo[1,5-a]pyridine-3-carbonitrile]",3 nM
5,"CN(C)c1ccc(-c2cc(Sc3ccc(F)cc3C#N)c3c(C#N)cnn3c2)cn1 [Example 612, 4-((2-cyano-4-fluorophenyl)thio)-6-(6-(dimethylamino)pyridin-3-yl)pyrazolo[1,5-a]pyridine-3-carbonitrile]",2 nM
6,"N#Cc1ccccc1Sc1cc(-c2cnn(CC(F)F)c2)cn2ncc(C#N)c12 [Example 613, 4-((2-cyanophenyl)thio)-6-(1-(2,2-difluoroethyl)-1H-pyrazol-4-yl)pyrazolo[1,5-a]pyridine-3-carbonitrile]",1 nM
7,"Cc1c(-c2cc(Sc3ccccc3C#N)c3c(C#N)cnn3c2)cnn1C [Example 614, 4-((2-cyanophenyl)thio)-6-(1,5-dimethyl-1H-pyrazol-4-yl)pyrazolo[1,5-a]pyridine-3-carbonitrile]",9 nM
8,"Cc1nc(Sc2cc(-c3cnn(C)c3)cn3ncc(C#N)c23)c(F)cc1F [Example 615, 4-((3,5-difluoro-6-methylpyridin-2-yl)thio)-6-(1-methyl-1H-pyrazol-4-yl)pyrazolo[1,5-a]pyridine-3-carbonitrile]",2 nM
9,"Cn1cc(-c2cc(Sc3ccccn3)c3c(C#N)cnn3c2)cn1 [Example 616, 6-(1-methyl-1H-pyrazol-4-yl)-4-(pyridin-2-ylthio)pyrazolo[1,5-a]pyridine-3-carbonitrile]",6 nM
10,"Cn1cc(-c2cc(Sc3ncccc3F)c3c(C#N)cnn3c2)c(N)n1 [Example 617, 6-(3-amino-1-methyl-1H-pyrazol-4-yl)-4-((3-fluoropyridin-2-yl)thio)pyrazolo[1,5-a]pyridine-3-carbonitrile]",6 nM
11,"CN1CC[C@@H](n2cc(-c3cc(Sc4ccccc4C#N)c4c(C#N)cnn4c3)cn2)CC1=O [Example 618, (R)-4-((2-cyanophenyl)thio)-6-(1-(1-methyl-2-oxopiperidin-4-yl)-1H-pyrazol-4-yl)pyrazolo[1,5-a]pyridine-3-carbonitrile]",0.4 nM
12,"CN1CC[C@H](n2cc(-c3cc(Sc4ccccc4C#N)c4c(C#N)cnn4c3)cn2)CC1=O [Example 619, (S)-4-((2-cyanophenyl)thio)-6-(1-(1-methyl-2-oxopiperidin-4-yl)-1H-pyrazol-4-yl)pyrazolo[1,5-a]pyridine-3-carbonitrile]",2 nM
13,"CC1(C)C[C@H](n2cc(-c3cc(Sc4ccccc4C#N)c4c(C#N)cnn4c3)cn2)CCN1 [Example 620, (R)-4-((2-cyanophenyl)thio)-6-(1-(2,2-dimethylpiperidin-4-yl)-1H-pyrazol-4-yl)pyrazolo[1,5-a]pyridine-3-carbonitrile]",0.3 nM
14,"CC1(C)C[C@@H](n2cc(-c3cc(Sc4ccccc4C#N)c4c(C#N)cnn4c3)cn2)CCN1 [Example 621, (S)-4-((2-cyanophenyl)thio)-6-(1-(2,2-dimethylpiperidin-4-yl)-1H-pyrazol-4-yl)pyrazolo[1,5-a]pyridine-3-carbonitrile]",0.3 nM
15,"N#Cc1ccccc1Sc1cc(-c2cnn([C@@H]3CCC(=O)NC3)c2)cn2ncc(C#N)c12 [Example 622, (R)-4-((2-cyanophenyl)thio)-6-(1-(6-oxopiperidin-3-yl)-1H-pyrazol-4-yl)pyrazolo[1,5-a]pyridine-3-carbonitrile]",0.5 nM
16,"N#Cc1ccccc1Sc1cc(-c2cnn([C@H]3CCC(=O)NC3)c2)cn2ncc(C#N)c12 [Example 623, (S)-4-((2-cyanophenyl)thio)-6-(1-(6-oxopiperidin-3-yl)-1H-pyrazol-4-yl)pyrazolo[1,5-a]pyridine-3-carbonitrile]",1 nM
17,"N#Cc1ccccc1Sc1cc(-c2cnn(C3CCC3)c2)cn2ncc(C#N)c12 [Example 624, 4-((2-cyanophenyl)thio)-6-(1-cyclobutyl-1H-pyrazol-4-yl)pyrazolo[1,5-a]pyridine-3-carbonitrile]",1 nM

row,Structure (SMILES),IC50
1,"N#Cc1ccccc1Sc1cc(-c2cnn([C@H]3CCCNC3)c2F)cn2ncc(C#N)c12 [Example 625, (S)-4-((2-cyanophenyl)thio)-6-(5-fluoro-1-(piperidin-3-yl)-1H-pyrazol-4-yl)pyrazolo[1,5-a]pyridine-3-carbonitrile]",1 nM
2,"N#Cc1cc(F)ccc1Sc1cc(-c2ccc(N3CC[C@H](O)C3)nc2)cn2ncc(C#N)c12 [Example 626, (S)-4-((2-cyano-4-fluorophenyl)thio)-6-(6-(3-hydroxypyrrolidin-1-yl)pyridin-3-yl)pyrazolo[1,5-a]pyridine-3-carbonitrile]",1 nM
3,"N#Cc1cc(F)ccc1Sc1cc(-c2ccc(N3CC[C@@H](O)C3)nc2)cn2ncc(C#N)c12 [Example 627, (R)-4-((2-cyano-4-fluorophenyl)thio)-6-(6-(3-hydroxypyrrolidin-1-yl)pyridin-3-yl)pyrazolo[1,5-a]pyridine-3-carbonitrile]",2 nM
4,"N#Cc1cc(F)ccc1Sc1cc(-c2ccc(N3C[C@@H](O)[C@@H](O)C3)nc2)cn2ncc(C#N)c12 [Example 628, 4-((2-cyano-4-fluorophenyl)thio)-6-(6-((3R,4S)-3,4-dihydroxypyrrolidin-1-yl)pyridin-3-yl)pyrazolo[1,5-a]pyridine-3-carbonitrile]",1 nM
5,"N#Cc1cc(F)ccc1Sc1cc(-c2ccc(N3C[C@@H](O)[C@H](O)C3)nc2)cn2ncc(C#N)c12 [Example 629, 4-((2-cyano-4-fluorophenyl)thio)-6-(6-((3R,4R)-3,4-dihydroxypyrrolidin-1-yl)pyridin-3-yl)pyrazolo[1,5-a]pyridine-3-carbonitrile]",1.6 nM
6,"CC(=O)N1CCC[C@H](n2cc(-c3cc(Sc4nc(C)c(F)cc4F)c4c(C#N)cnn4c3)cn2)C1 [Example 630, (S)-6-(1-(1-acetylpiperidin-3-yl)-1H-pyrazol-4-yl)-4-((3,5-difluoro-6-methylpyridin-2-yl)thio)pyrazolo[1,5-a]pyridine-3-carbonitrile]",1 nM
7,"Cc1nc(Sc2cc(-c3cnn([C@H]4CCCNC4)c3)cn3ncc(C#N)c23)c(F)cc1F [Example 631, (S)-4-((3,5-difluoro-6-methylpyridin-2-yl)thio)-6-(1-(piperidin-3-yl)-1H-pyrazol-4-yl)pyrazolo[1,5-a]pyridine-3-carbonitrile]",1 nM
8,"Cc1c(-c2cc(Sc3ccc(F)cc3C#N)c3c(C#N)cnn3c2)cnn1[C@@H]1CCCC[C@H]1O [Example 632, 4-((2-cyano-4-fluorophenyl)thio)-6-(1-((1R,2R)-2-hydroxycyclohexyl)-5-methyl-1H-pyrazol-4-yl)pyrazolo[1,5-a]pyridine-3-carbonitrile]",32 nM
9,"Cc1c(-c2cc(Sc3ccc(F)cc3C#N)c3c(C#N)cnn3c2)cnn1[C@H]1CCCC[C@@H]1O [Example 633, 4-((2-cyano-4-fluorophenyl)thio)-6-(1-((2S,2S)-2-hydroxycyclohexyl)-5-methyl-1H-pyrazol-4-yl)pyrazolo[1,5-a]pyridine-3-carbonitrile]",1 nM
10,"Cc1c(-c2cc(Sc3ccc(F)cc3C#N)c3c(C#N)cnn3c2)cnn1[C@H]1CC[C@H](OC(=O)[C@H](C)N)CC1 [Example 634, (1r,4S)-4-(4-(3-cyano-4-((2-cyano-4 fluorophenyl)thio)pyrazolo [1,5-a]pyridin-6-yl)-5-methyl-1H-pyrazol-1-yl)cyclohexyl L-alaninate]",1 nM
11,"Cc1c(-c2cc(Sc3ccc(F)cc3C#N)c3c(C#N)cnn3c2)cnn1[C@H]1CC[C@H](OC(=O)[C@H](N)C(C)C)CC1 [Example 635, (1r,4R)-4-(4-(3-cyano-4-((2-cyano-4-fluorophenyl)thio)pyrazolo [1,5-a]pyridin-6-yl)-5-methyl-1H-pyrazol-1-yl)cyclohexyl D-valinate]",1 nM
12,"Cc1c(-c2cc(Sc3ccc(F)cc3C#N)c3c(C#N)cnn3c2)cnn1[C@H]1CC[C@H](OC(=O)CN)CC1 [Example 636, (1r,4r)-4-(4-(3-cyano-4-((2-cyano-4-fluorophenyl)thio)pyrazolo [1,5-a]pyridin-6-yl)-5-methyl-1H-pyrazol-1-yl)cyclohexyl glycinate]",1 nM
13,"N#Cc1ccccc1Sc1cc(-c2c[nH]nn2)cn2ncc(C#N)c12 [Example 637, 4-((2-cyanophenyl)thio)-6-(1H-1,2,3-triazol-4-yl)pyrazolo[1,5-a]pyridine-3-carbonitrile]",12 nM
14,"Cn1cc(-c2cc(Sc3ccccc3C#N)c3c(C#N)cnn3c2)ccc1=O [Example 638, 4-((2-cyanophenyl)thio)-6-(1-methyl-6-oxo-1,6-dihydropyridin-3-yl)pyrazolo[1,5-a]pyridine-3-carbonitrile]",18 nM
15,"CN(CCO)c1ccc(-c2cc(Sc3ccc(F)cc3C#N)c3c(C#N)cnn3c2)cn1 [Example 639, 4-((2-cyano-4-fluorophenyl)thio)-6-(6-((2-hydroxyethyl)(methyl)ami-no)pyridin-3-yl)pyrazolo[1,5-a]pyridine-3-carbonitrile]",1.5 nM
16,"N#Cc1cc(F)ccc1Sc1cc(-c2ccc(NCCO)nc2)cn2ncc(C#N)c12 [Example 640, 4-((2-cyano-4-fluorophenyl)thio)-6-(6-((2-hydroxyethyl)amino)pyridin-3-yl)pyrazolo[1,5-a]pyridine-3-carbonitrile]",2.5 nM
